According to patent publication US20220401514A1, “ANTIMICROBIAL, BACTERIOPHAGE-DERIVED POLYPEPTIDES AND THEIR USE AGAINST GRAM-NEGATIVE AND ACID-FAST BACTERIA” (CONTRAFECT CORPORATION, priority 2019, published 2022):
Read-outs that look alike come from different tables or passages of the source.

How the values were obtained:
[1] = system: carbapenem-resistant P. aeruginosa clinical isolate CFS-1292; experiment: MIC by modified CLSI broth microdilution against P. aeruginosa CFS-1292 (CAA, CAA + human serum); assay type: cell-based, Pseudomonas aeruginosa; conditions: 100% CAA; 1st run or single value
Pseudomonas aeruginosa = experiment: microbe, parasite or virus in culture; assay type: cell-based; conditions: for MIC: CAA without human serum
Enterobacter cloacae = experiment: microbe, parasite or virus in culture; assay type: cell-based
Procedure, shortened: (§1)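 Peptide MICs were determined by growth inhibition in CAA medium supplemented with human serum.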

Escherichia coli = experiment: microbe, parasite or virus in culture; assay type: cell-based
Procedure, shortened: as §1

Klebsiella pneumoniae [2] = assay type: cell-based
Description: (§2) Determination of Minimal Inhibitory Concentrations (MIC).
Additional MIC testing was performed for several peptides against the ESKAPE pathogens Escherichia coli, Enterobacter cloacae, Klebsiella pneumoniae, and Acinetobacter baumannii, in CAA supplemented with human serum (Table D).

Acinetobacter baumannii = experiment: microbe, parasite or virus in culture; assay type: cell-based
Salmonella typhimurium = experiment: MIC against Salmonella typhimurium; assay type: cell-based
S. maltophilia = experiment: MIC against S. maltophilia isolates; assay type: cell-based, Stenotrophomonas maltophilia; conditions: S. maltophilia isolates (n per peptide in table)
Procedure, shortened: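 MIC in μg/mL for Chp peptides across several S. maltophilia isolates, n denoting the number of isolates tested.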

[3] = system: carbapenem-resistant bacterial strains; experiment: organism not typed; assay type: cell-based
Excerpt: as §2

[4] = Stability assessment in 100% CAA; assay type: in vitro ADME; parameters: unit not given beside the values
Description: Stability was assessed after incubation in 100% human serum at 37° C. after 10 minutes, 1 hour, and 2 hours.
Stability assessment was further conducted in 100% CAA and rabbit serum using the same methodology discussed above.

M. smegmatis = experiment: 45 hr MIC against M. smegmatis (NTM), Mueller Hinton broth; assay type: cell-based, Mycobacterium smegmatis; conditions: M. smegmatis MC^2 155, Run #1
[5] = system: P. aeruginosa strain CFS-1292; experiment: MIC in presence and absence of NaCl (140 mM); assay type: cell-based, Pseudomonas aeruginosa
Description: Certain Chp peptides were evaluated over a range of physiological NaCl levels and pH values, and were further evaluated for activity in the presence of various divalent cations.

[6] = system: P. aeruginosa strain CFS-1292; experiment: MIC at pH 6, pH 7 and pH 8; assay type: cell-based, Pseudomonas aeruginosa
Description: The Chp peptides were further evaluated at varying pH levels. The MIC values were determined at pH 6, pH 7, and pH 8 for 18 different Chp peptides against P. aeruginosa strain CFS-1292. […]

[7] = system: P. aeruginosa strain CFS-1292; experiment: MIC in presence of divalent cations (calcium chloride, magnesium sulfate); assay type: cell-based, Pseudomonas aeruginosa
Description: Next, Chp peptides were evaluated in the presence of different divalent cations. […]; (2) in the presence of 2 mM calcium chloride alone; (3) in the presence of 1 mM magnesium sulfate alone; and (4) in the presence of both 2 mM calcium chloride and 1 mM magnesium sulfate. […]

[8] = system: P. aeruginosa strain CFS-1292; experiment: MIC in presence and absence of Survanta pulmonary surfactant; assay type: cell-based, Pseudomonas aeruginosa
Klebsiella pneumoniae [9] = experiment: microbe, parasite or virus in culture; assay type: cell-based; conditions: CAA without human serum
[10] = P. aeruginosa isolates (n per peptide in table)
[11] = E. cloacae isolates (n per peptide in table)
[12] = E. coli isolates (n per peptide in table)
[13] = K. pneumoniae isolates (n per peptide in table)
[14] = A. baumannii isolates (n per peptide in table)

With “MARSRRRMSKRSSRRSFRKYAKTHKRNFKARSMRGGIRL [Ecp1]” the “MIC (μg/mL) against CFS-1292 in 100% CAA (1st run/2nd run)” value [1] was 0.5 µg/mL, the MIC (Pseudomonas aeruginosa; P. aeruginosa 453 (Human clinical isolate, HSS), RSC 1292) was 2 µg/mL and the MIC (Pseudomonas aeruginosa; P. aeruginosa (ATCC 14213, human hip wound), RSC 1111) was 2 µg/mL. It also gave an MIC (Pseudomonas aeruginosa; P. aeruginosa (ATCC 15152, abscess in middle ear), RSC 1110) of 1 µg/mL, an MIC (Pseudomonas aeruginosa; P. aeruginosa (ATCC 15692, infected wound), RSC 489) of 2 µg/mL and an MIC (Pseudomonas aeruginosa; P. aeruginosa (ATCC 15692, infected wound), RSC 1115) of 2 µg/mL. It also gave an MIC (Pseudomonas aeruginosa; P. aeruginosa (ATCC 17646, human liver abscess), RSC 1109) of 2 µg/mL, an MIC (Pseudomonas aeruginosa; P. aeruginosa (ATCC 19142, tracheobronchial secretion), RSC 1108) of 1 µg/mL and an MIC (Pseudomonas aeruginosa; P. aeruginosa (ATCC 25102, bacteriophage host), RSC 1114) of 2 µg/mL. For the same sequence, the MIC (Pseudomonas aeruginosa; P. aeruginosa (ATCC 27853, MIC control strain), RSC 815) was 2 µg/mL, the MIC (Pseudomonas aeruginosa; P. aeruginosa (ATCC BAA-27, lab strain), RSC 1113) was 4 µg/mL and the MIC (Pseudomonas aeruginosa; P. aeruginosa (PAO1, alternate source, HER1018), RSC 490) was 2 µg/mL. For the same sequence, the MIC50 (Pseudomonas aeruginosa; [10]) was 4 µg/mL, the MIC100 (Pseudomonas aeruginosa; [10]) was >8 µg/mL and the MIC50 (Enterobacter cloacae; [11]) was 0.5 µg/mL. For the same sequence, the MIC100 (Enterobacter cloacae; [11]) was 2 µg/mL, the “MIC Range” value (Enterobacter cloacae; [11]) was 0.25 to 4 µg/mL and the MIC (Enterobacter cloacae; Enterobacter cloacae (ATCC 13047, MIC control strain), RSC 1240, CAA without human serum) was 2 µg/mL. It also gave an MIC (Enterobacter cloacae; Enterobacter cloacae ATCC 13047, CAA supplemented with human serum) of 16 µg/mL, an MIC (Escherichia coli; E. coli (ATCC 25922, MIC control strain), RSC 813, CAA without human serum) of 2 µg/mL and an MIC (Escherichia coli; E. coli (HM346, colon, Crohn's disease), RSC 1212, CAA without human serum) of 2 µg/mL. For the same sequence, the MIC50 (Escherichia coli; [12]) was 0.5 µg/mL, the MIC100 (Escherichia coli; [12]) was 2 µg/mL and the “MIC Range” value (Escherichia coli; [12]) was 0.25 to 4 µg/mL. For the same sequence, the MIC (Escherichia coli; Escherichia coli ATCC 25922, CAA supplemented with human serum) was 0.25 µg/mL, the MIC50 (Klebsiella pneumoniae [2]; [13]) was 1 µg/mL and the MIC100 (Klebsiella pneumoniae [2]; [13]) was 2 µg/mL. For the same sequence, the “MIC Range” value (Klebsiella pneumoniae [2]; [13]) was 1 to 2 µg/mL, the MIC (Klebsiella pneumoniae [2]; Klebsiella pneumoniae HM-44, CAA supplemented with human serum) was 0.5 µg/mL and the MIC50 (Acinetobacter baumannii; [14]) was 0.5 µg/mL. The MIC100 (Acinetobacter baumannii; [14]) was 1 µg/mL, the “MIC Range” value (Acinetobacter baumannii; [14]) was 0.125 to 2 µg/mL and the MIC (Acinetobacter baumannii; Acinetobacter baumannii (clinical isolate HSS), RSC 30, CAA without human serum) was 2 µg/mL. For the same sequence, the MIC (Acinetobacter baumannii; Acinetobacter baumannii (clinical isolate HSS), RSC 32, CAA without human serum) was 2 µg/mL, the MIC (Acinetobacter baumannii; Acinetobacter baumannii ATCC BAA 747, CAA supplemented with human serum) was 1 µg/mL and the MIC (Salmonella typhimurium; Salmonella typhimurium) was 2 µg/mL. The MIC (Salmonella typhimurium; Salmonella typhimurium LT2 (lab isolate), RSC 27, CAA without human serum) was 2 µg/mL, the MIC50 (S. maltophilia) was 8 µg/mL and the MIC100 (S. maltophilia) was >8 µg/mL. The MIC ([3]; carbapenem-resistant isolate PA19) was 1 µg/mL, the MIC ([3]; carbapenem-resistant isolate PA20) was >8 µg/mL and the MIC ([3]; carbapenem-resistant isolate PA21) was >8 µg/mL. For the same sequence, the MIC ([3]; carbapenem-resistant isolate PA22) was 8 µg/mL, the MIC ([3]; carbapenem-resistant isolate PA23) was 4 µg/mL and the MIC ([3]; carbapenem-resistant isolate PA24) was 4 µg/mL. The MIC ([3]; carbapenem-resistant isolate WLC-452) was 2 µg/mL, the “MIC (100% CAA)” value [4] was 0.25 and the “45 hr MIC” value (M. smegmatis) was 4 µg/mL. For the same sequence, the “Fold change in MIC” value ([5]; CAA + 140 mM NaCl versus CAA without added NaCl) was 4, the MIC, CAA + 140 mM NaCl ([5]; CAA + 140 mM NaCl, P. aeruginosa CFS-1292) was 2 µg/mL and the MIC, CAA (no added NaCl) ([5]; CAA, no added NaCl, P. aeruginosa CFS-1292) was 0.5 µg/mL. For the same sequence, the MIC ([6]; CAA media (pH 7)) was 0.5 µg/mL, the MIC ([6]; pH 6) was 1 µg/mL and the MIC ([6]; pH 7) was 1 µg/mL. The MIC ([6]; pH 8) was 1 µg/mL, the MIC ([7]; CAA media + 1 mM MgSO4) was 0.5 µg/mL and the MIC ([7]; CAA media + 2 mM CaCl2) was 1 µg/mL. The MIC ([7]; CAA media + + 1 mM MgSO4) was 1 µg/mL, the MIC ([7]; CAA media alone) was 0.5 µg/mL and the MIC ([8]; CAA media + 0.19 mg/mL Survanta) was 0.5 µg/mL. The MIC ([8]; CAA media + […] Survanta) was 0.5 µg/mL, the MIC ([8]; CAA media alone) was 0.5 µg/mL and the MIC (Klebsiella pneumoniae [9]; Klebsiella pneumoniae (ATCC 10031, MIC control strain), RSC 814) was 2 µg/mL. The MIC (Klebsiella pneumoniae [9]; Klebsiella pneumoniae (g2-3 HM35K), RSC 1138) was 2 µg/mL, the MIC (Klebsiella pneumoniae [9]; Klebsiella sp. (HM-44; colon, Crohn's disease), RSC 1139) was 2 µg/mL and the MIC (Klebsiella pneumoniae [9]; Klebsiella spp. (HM-223; gut of Crohn's disease patient), RSC 1131) was 2 µg/mL.
